Bounds are passed on as bounds.

Usually IC50 stands for the point on the concentration scale where inhibition reaches its midpoint.

In this assay the target is T1, full-length human PKCι (Homo sapiens, UniProt P41743).
T1 construct: Recombinant, full-length human PKCι expressed in Sf21 insect cells is also commercially available; purchased EMD Millipore; host or cells: Sf21 insect cells (baculovirus)
T1 sequence (P41743 1-596): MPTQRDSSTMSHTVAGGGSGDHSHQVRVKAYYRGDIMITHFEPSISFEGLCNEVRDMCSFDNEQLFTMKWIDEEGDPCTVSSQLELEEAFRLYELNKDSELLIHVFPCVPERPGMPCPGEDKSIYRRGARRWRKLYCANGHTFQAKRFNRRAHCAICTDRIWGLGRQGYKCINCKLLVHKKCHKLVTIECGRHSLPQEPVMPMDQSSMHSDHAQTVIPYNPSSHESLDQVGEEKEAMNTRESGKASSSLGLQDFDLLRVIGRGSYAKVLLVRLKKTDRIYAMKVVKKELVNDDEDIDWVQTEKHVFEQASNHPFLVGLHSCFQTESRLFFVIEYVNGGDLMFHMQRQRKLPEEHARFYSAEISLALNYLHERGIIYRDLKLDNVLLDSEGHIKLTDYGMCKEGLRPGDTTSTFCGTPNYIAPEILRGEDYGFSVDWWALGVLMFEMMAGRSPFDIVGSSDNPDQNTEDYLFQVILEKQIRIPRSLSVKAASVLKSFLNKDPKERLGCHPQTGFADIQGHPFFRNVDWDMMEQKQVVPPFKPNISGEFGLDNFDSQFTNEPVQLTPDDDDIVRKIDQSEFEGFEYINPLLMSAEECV
Briefly: PKCι IC50 IMAP fluorescence polarisation assay, full-length enzyme, 150 μM ATP. The format is biochemical. Conditions: read-out: IC50 in IMAP assay against full length PKCi at 150 μM ATP. The method in brief:
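IMAP fluorescence polarisation kinase assay: 15 pM baculovirus-expressed human PKCiota with 100 nM FAM-pseudosubstrate peptide and 150 μM ATP, 1 h at 25 °C. IMAP detection reagent then 2 h at 25 °C before FP measurement. Inhibition referenced to no-compound and no-enzyme controls for IC50 fitting.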
(Polarisation of emitted light reports the rotation of a fluorescent probe.)
For `CC1(C)CNCC[C@@H]1Nc1nc(-c2ccnc(Nc3ccc(F)cn3)c2)nc2cncc(C3CC3)c12` [Example 393, {5-Cyclopropyl-2-[2-(5-fluoro-pyridin-2-ylamino)-pyridin-4-yl]-pyrido[3,4-d]pyrimidin-4-yl}-((S)-3,3-dimethyl-piperidin-4-yl)-amine], the IC50 was less than 100 nM.

With `CC1(C)CNCC[C@@H]1Nc1nc(-c2ccnc3[nH]c(-c4ccccc4F)cc23)nc2cncc(C3CC3)c12` [Example 394, {5-Cyclopropyl-2-[2-(2-fluoro-phenyl)-1H-pyrrolo[2,3-b]pyridin-4-yl]-pyrido[3,4-d]pyrimidin-4-yl}-((S)-3,3-dimethyl-piperidin-4-yl)-amine], the IC50 was less than 100 nM.

As for `CC1(C)CNCC[C@@H]1Nc1nc(-c2ccnc3[nH]c(-c4cccnc4)cc23)nc2cncc(C3CC3)c12` [Example 395, [5-Cyclopropyl-2-(2-pyridin-3-yl-1H-pyrrolo[2,3-b]pyridin-4-yl)-pyrido[3,4-d]pyrimidin-4-yl]-((S)-3,3-dimethyl-piperidin-4-yl)-amine], the IC50 is less than 100 nM.

For `CN(c1nc(-c2ccnc3[nH]c(-c4ccccc4F)cc23)nc2cncc(C3CC3)c12)[C@H]1CCNCC1(C)C` [Example 396, {5-Cyclopropyl-2-[2-(2-fluoro-phenyl)-1H-pyrrolo[2,3-b]pyridin-4-yl]-pyrido[3,4-d]pyrimidin-4-yl}-((S)-3,3-dimethyl-piperidin-4-yl)-methyl-amine], the IC50 is less than 100 nM.

These data come from US10414763B2 (CANCER RESEARCH TECHNOLOGY LIMITED, priority 2014, dated 2019).
